Results from patent US20230226074A1, “METHODS OF USE FOR PYRIMIDINES AS FERROPORTIN INHIBITORS” (Global Blood Therapeutics, Inc., priority 2020, published 2023).

Target: T1, human ferroportin (Homo sapiens, UniProt Q9NP59)
T1 construct: luciferase reporter (probably NanoLuc, inferred from the Nano-Glo Luciferase Assay System read-out); expressed in transfected cells; host or cells: CHO cells, stably transfected, expression induced with doxycycline
T1 sequence (Q9NP59 1-571): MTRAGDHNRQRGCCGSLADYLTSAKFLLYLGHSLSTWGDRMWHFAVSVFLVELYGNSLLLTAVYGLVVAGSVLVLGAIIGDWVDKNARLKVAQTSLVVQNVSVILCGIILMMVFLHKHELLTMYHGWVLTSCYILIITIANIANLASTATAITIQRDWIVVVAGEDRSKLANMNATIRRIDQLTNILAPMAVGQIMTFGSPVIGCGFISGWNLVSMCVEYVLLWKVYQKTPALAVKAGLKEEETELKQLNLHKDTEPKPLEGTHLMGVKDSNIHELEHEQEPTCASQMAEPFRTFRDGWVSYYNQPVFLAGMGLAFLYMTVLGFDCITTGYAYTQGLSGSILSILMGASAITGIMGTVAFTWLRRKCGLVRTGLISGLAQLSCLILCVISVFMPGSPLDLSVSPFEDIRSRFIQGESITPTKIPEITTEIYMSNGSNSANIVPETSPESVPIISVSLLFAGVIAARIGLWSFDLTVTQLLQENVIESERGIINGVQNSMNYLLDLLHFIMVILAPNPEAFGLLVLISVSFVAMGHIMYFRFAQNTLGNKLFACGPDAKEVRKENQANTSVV
Experiment: In-vitro ferroportin internalization assay (luciferase reporter)
Assay type: cell-based
Conditions: average pEC50; stably-transfected CHO cell line expressing human ferroportin tagged to a luciferase reporter; 6 h incubation with test compound
Method: The protocol for this assay is generally as described in WO2018/128828, incorporated herein by reference in its entirety. Functional internalization of ferroportin protein was measured using a stably-transfected CHO cell line expressing the human ferroportin tagged to a luciferase reporter. Cells were plated for 24 h in the presence of ferric ammonium citrate (FAC). Ferroportin protein expression was induced with doxycycline for 24 h. The next day, the compounds were added. Test compounds were dissolved in DMSO. Cells were incubated with the test compounds for 6 h, and subsequently luciferase activity was measured using the Nano-Glo Luciferase Assay System and Glomax (Promega, Madison, Wis.). The average pEC50 was determined for the test compounds.

## CN(CC(=O)N1CC2CC(C2)C1)c1nc(-c2cc(OCCO)ccn2)nc2c1CCC2 [Compound 433, 1-{3-azabicyclo[3.1.1]heptan-3-yl}-2-({2-[4-(2-hydroxyethoxy)pyridin-2-yl]-5H,6H,7H-cyclopenta[d]pyrimidin-4-yl}(methyl)amino)ethan-1-one]
  pEC50: 8.1

## c1ccc(-c2nc3c(c(N4CCCOC5CCCC54)n2)CCC3)nc1 (centres unmarked) [Compound 187, 2-(4-{octahydro-2H-cyclopenta[b][1,4]oxazepin-5-yl]-5H,6H,7H-cyclopenta[d]pyrimidin-2-yl)pyridine]
  pEC50: 6.8

## CN1CCN(c2nc(-c3ccccn3)nc3sc(-c4ccccc4)cc23)CC1 [Compound 200, 1-methyl-4-[6-phenyl-2-(pyridin-2-yl)thieno[2,3-d]pyrimidin-4-yl]piperazine]
  pEC50: 5.3

## Cc1cc(NCCNC(=O)Cc2ccccc2)nc(-c2ccccn2)n1 [Compound 233, N-(2-{[6-methyl-2-(pyridin-2-yl)pyrimidin-4-yl]amino}ethyl)-2-phenylacetamide]
  pEC50: 5.2

## Cc1cccc(C)c1NC(=O)CN(C)c1nc(-c2ccccn2)nc(C)c1C [Compound 195, 2-{[5,6-dimethyl-2-(pyridin-2-yl)pyrimidin-4-yl](methyl)amino}-N-(2,6-dimethylphenyl)acetamide]
  pEC50: 6.5

## Cc1cc(NCCc2cccnc2)nc(-c2ccccn2)n1 [Compound 231, 6-methyl-2-(pyridin-2-yl)-N-[2-(pyridin-3-yl)ethyl]pyrimidin-4-amine]
  pEC50: 5.4

## Cc1cc(NC(=O)CN(C)c2nc(-c3ccccn3)nc3scc(-c4ccccc4)c23)no1 [Compound 238, N-(5-methyl-1,2-oxazol-3-yl)-2-{methyl[5-phenyl-2-(pyridin-2-yl)thieno[2,3-d]pyrimidin-4-yl]amino}acetamide]
  pEC50: 6.3

## CNC(=O)CNc1nc(-c2ccccn2)nc2scc(-c3ccccc3)c12 [Compound 217, N-methyl-2-{[5-phenyl-2-(pyridin-2-yl)thieno[2,3-d]pyrimidin-4-yl]amino}acetamide]
  pEC50: 5.3

## O=C(O)CCCCCNc1nc(-c2ccccn2)nc2c1CCC2 [Compound 186, 6-{[2-(pyridin-2-yl)-5H,6H,7H-cyclopenta[d]pyrimidin-4-yl]amino}hexanoic acid]
  pEC50: 5.3

## OCCNc1nc(-c2ccccn2)nc2scc(-c3ccccc3)c12 [Compound 225, 2-{[5-phenyl-2-(pyridin-2-yl)thieno[2,3-d]pyrimidin-4-yl]amino}ethan-1-ol]
  pEC50: 5.3

## CC(Nc1nc(-c2ccccn2)nc2scc(-c3ccccc3)c12)C(=O)NC(C)(C)C (centres unmarked) [Compound 215, N-tert-butyl-2-{[5-phenyl-2-(pyridin-2-yl)thieno[2,3-d]pyrimidin-4-yl]amino}propanamide]
  pEC50: 6.8

## CC(C)C(C(=O)Nc1cnn(C)c1)N(C)c1nc(-c2ccccn2)nc2c1CCC2 (single isomer, unassigned) [Compound 317]
  pEC50: 7.1

## O=C1C(Nc2cc(C(F)(F)F)nc(-c3ccccn3)n2)CN1c1ccc(F)cc1 (centres unmarked) [Compound 227, 1-(4-fluorophenyl)-3-{[2-(pyridin-2-yl)-6-(trifluoromethyl)pyrimidin-4-yl]amino}azetidin-2-one]
  pEC50: 4.8

## COc1ccc(NC(=O)C(C(C)C)N(C)c2nc(-c3ccccn3)nc3c2CCC3)cn1 (single isomer, unassigned) [Compound 316]
  pEC50: 7.2

## c1ccc(-c2csc3nc(-c4ccccn4)nc(N4CCN(CCN5CCCC5)CC4)c23)cc1 [Compound 199, 1-[5-phenyl-2-(pyridin-2-yl)thieno[2,3-d]pyrimidin-4-yl]-4-[2-(pyrrolidin-1-yl)ethyl]piperazine]
  pEC50: 5.8

## CN(CCCc1n[nH]c(N)c1C#N)c1nc(-c2ccccn2)nc2scc(-c3ccccc3)c12 [Compound 246, 5-amino-3-(3-{methyl[5-phenyl-2-(pyridin-2-yl)thieno[2,3-d]pyrimidin-4-yl]amino}propyl)-1H-pyrazole-4-carbonitrile]
  pEC50: 6.2

## CC(=O)N1CCN(c2nc(-c3ccccn3)nc3scc(-c4ccccc4)c23)CC1 [Compound 214, 1-{4-[5-phenyl-2-(pyridin-2-yl)thieno[2,3-d]pyrimidin-4-yl]piperazin-1-yl}ethan-1-one]
  pEC50: 5.8

## COc1ccc(NC(=O)[C@@H](C(C)C)N(C)c2nc(-c3ccccn3)nc3c2CCC3)cn1 [Compound 315, (2R)-N-(6-methoxypyridin-3-yl)-3-methyl-2-{methyl[2-(pyridin-2-yl)-5H,6H,7H-cyclopenta[d]pyrimidin-4-yl]amino}butanamide]
  pEC50: 7.3

## c1ccc(-c2csc3nc(-c4ccccn4)nc(N4CCCC4)c23)cc1 [Compound 205, 2-[5-phenyl-4-(pyrrolidin-1-yl)thieno[2,3-d]pyrimidin-2-yl]pyridine]
  pEC50: 5.9

## COCCNc1nc(-c2ccccn2)nc2sc(C)c(C)c12 [Compound 241, N-(2-methoxyethyl)-5,6-dimethyl-2-(pyridin-2-yl)thieno[2,3-d]pyrimidin-4-amine]
  pEC50: 6.3

## CNC(=O)CCN(C)c1nc(-c2ccccn2)nc2scc(-c3ccccc3)c12 [Compound 216, N-methyl-3-{methyl[5-phenyl-2-(pyridin-2-yl)thieno[2,3-d]pyrimidin-4-yl]amino}propanamide]
  pEC50: 5.7

## CS(=O)(=O)CCNc1nc(-c2ccccn2)nc2scc(-c3ccccc3)c12 [Compound 226, N-(2-methanesulfonylethyl)-5-phenyl-2-(pyridin-2-yl)thieno[2,3-d]pyrimidin-4-amine]
  pEC50: 5.8

## CN(CC(=O)NC(C)(C)C)c1nc(-c2cc(OC[C@H](O)CO)ccn2)nc2c1CCC2 [Compound 484, N-tert-butyl-2-[(2-{4-[(2R)-2,3-dihydroxypropoxy]pyridin-2-yl}-5H,6H,7H-cyclopenta[d]pyrimidin-4-yl)(methyl)amino]acetamidede]
  pEC50: 7.7

## c1ccc(-c2csc3nc(-c4ccccn4)nc(N4CCN(c5ccccc5)CC4)c23)cc1 [Compound 206, 1-phenyl-4-[5-phenyl-2-(pyridin-2-yl)thieno[2,3-d]pyrimidin-4-yl]piperazine]
  pEC50: 5.7

## O=C1C(Nc2cc(C(F)(F)F)nc(-c3ccccn3)n2)CCN1c1ccccc1 (centres unmarked) [Compound 228, 1-phenyl-3-{[2-(pyridin-2-yl)-6-(trifluoromethyl)pyrimidin-4-yl]amino}pyrrolidin-2-one]
  pEC50: 5.7

## CCCNC(=O)CNc1nc(-c2ccccn2)nc2scc(-c3ccccc3)c12 [Compound 219, 2-{[5-phenyl-2-(pyridin-2-yl)thieno[2,3-d]pyrimidin-4-yl]amino}-N-propylacetamide]
  pEC50: 6

## OCCN1CCN(c2nc(-c3ccccn3)nc3scc(-c4ccccc4)c23)CC1 [Compound 224, 2-{4-[5-phenyl-2-(pyridin-2-yl)thieno[2,3-d]pyrimidin-4-yl]piperazin-1-yl}ethan-1-ol]
  pEC50: 5.3

## CN(CC(=O)Nc1cccc(F)c1)c1nc(-c2ccccn2)nc2c1CCC2 [Compound 74, N-(3-fluorophenyl)-2-{methyl[2-(pyridin-2-yl)-5H,6H,7H-cyclopenta[d]pyrimidin-4-yl]amino}acetamide]
  pEC50: 7.5

## CCc1cc(N2Cc3ccccc3N(C)CC2C)nc(-c2ccccn2)n1 (centres unmarked) [Compound 194, 4-[6-ethyl-2-(pyridin-2-yl)pyrimidin-4-yl]-1,3-dimethyl-2,3,4,5-tetrahydro-1H-1,4-benzodiazepine]
  pEC50: 6.3

## CCN(CCO)c1nc(-c2ccccn2)nc2scc(-c3ccccc3)c12 [Compound 193, 2-{ethyl[5-phenyl-2-(pyridin-2-yl)thieno[2,3-d]pyrimidin-4-yl]amino}ethan-1-ol]
  pEC50: 6.4

## CCc1cc(NC2CN(c3ccccc3)C2=O)nc(-c2ccccn2)n1 (centres unmarked) [Compound 236, 3-{[6-ethyl-2-(pyridin-2-yl)pyrimidin-4-yl]amino}-1-phenylazetidin-2-one]
  pEC50: 5.4

## Cc1cc(NC[C@@H](O)CN2CCCCC2)nc(-c2ccccn2)n1 [Compound 237, (2R)-1-{[6-methyl-2-(pyridin-2-yl)pyrimidin-4-yl]amino}-3-(piperidine-1-yl)propan-2-ol]
  pEC50: 5.4

## OCCC1CCCCCN1c1nc(-c2ccccn2)nc2c1CCC2 (centres unmarked) [Compound 189, 2-{1-[2-(pyridin-2-yl)-5H,6H,7H-cyclopenta[d]pyrimidin-4-yl]azepan-2-yl}ethan-1-ol]
  pEC50: 6.7

## OC1CCN(c2nc(-c3ccccn3)nc3scc(-c4ccccc4)c23)CC1 [Compound 222, 1-[5-phenyl-2-(pyridin-2-yl)thieno[2,3-d]pyrimidin-4-yl]piperidin-4-ol]
  pEC50: 6

## OCCOCCNc1nc(-c2ccccn2)nc2scc(-c3ccccc3)c12 [Compound 213, 2-(2-{[5-phenyl-2-(pyridin-2-yl)thieno[2,3-d]pyrimidin-4-yl]amino}ethoxy)ethan-1-ol]
  pEC50: 5.7
